± gives the expanded uncertainty stated by the source.
Conditions: for surface tension liquid-gas: Drop volume; for viscosity / speed of sound / mass density / vapor or sublimation pressure: Liquid; for viscosity: Capillary tube (Ostwald / Ubbelohde) method; for speed of sound: Pulse-echo method; for vapor or sublimation pressure: Ebulliometric method (Recirculating still)

OCC1CCCO1 (stereo not given) [2-tetrahydrofurylmethanol]
surface tension liquid-gas (278.15 K): 39.54 ± 0.28 mN/m
viscosity (278.15 K, 101.33 kPa): 10.39 ± 0.22 mPa·s
speed of sound (278.15 K, 101.33 kPa): 1556.4 ± 1.3 m/s
mass density (278.15 K, 101.33 kPa, Vibrating tube method): 1067.07 ± 0.29 kg/m3
surface tension liquid-gas (280.65 K): 39.29 ± 0.28 mN/m
viscosity (280.65 K, 101.33 kPa): 9.487 ± 0.2 mPa·s
speed of sound (280.65 K, 101.33 kPa): 1547.6 ± 1.2 m/s
mass density (280.65 K, 101.33 kPa, Vibrating tube method): 1064.96 ± 0.29 kg/m3
surface tension liquid-gas (283.15 K): 39.03 ± 0.28 mN/m
mass density (283.15 K, 100 kPa): 1062.84 ± 0.45 kg/m3
viscosity (283.15 K, 101.33 kPa): 8.684 ± 0.18 mPa·s
speed of sound (283.15 K, 101.33 kPa): 1538.6 ± 1.2 m/s
mass density (283.15 K, 101.33 kPa, Vibrating tube method): 1062.84 ± 0.29 kg/m3
mass density (283.15 K, 2500 kPa): 1064.37 ± 0.48 kg/m3
mass density (283.15 K, 5000 kPa): 1065.68 ± 0.5 kg/m3
mass density (283.15 K, 7500 kPa): 1066.97 ± 0.53 kg/m3
mass density (283.15 K, 10000 kPa): 1068.24 ± 0.56 kg/m3
mass density (283.15 K, 20000 kPa): 1073.16 ± 0.69 kg/m3
mass density (283.15 K, 30000 kPa): 1077.84 ± 0.84 kg/m3
mass density (283.15 K, 40000 kPa): 1082.28 ± 0.99 kg/m3
mass density (283.15 K, 50000 kPa): 1086.55 ± 1.2 kg/m3
mass density (283.15 K, 60000 kPa): 1090.57 ± 1.3 kg/m3
surface tension liquid-gas (285.65 K): 38.78 ± 0.27 mN/m
viscosity (285.65 K, 101.33 kPa): 7.971 ± 0.17 mPa·s
speed of sound (285.65 K, 101.33 kPa): 1529.7 ± 1.2 m/s
mass density (285.65 K, 101.33 kPa, Vibrating tube method): 1060.72 ± 0.29 kg/m3
surface tension liquid-gas (288.15 K): 38.53 ± 0.27 mN/m
mass density (288.15 K, 100 kPa): 1058.59 ± 0.44 kg/m3
viscosity (288.15 K, 101.33 kPa): 7.335 ± 0.15 mPa·s
speed of sound (288.15 K, 101.33 kPa): 1520.8 ± 1.2 m/s
mass density (288.15 K, 101.33 kPa, Vibrating tube method): 1058.59 ± 0.29 kg/m3
mass density (288.15 K, 2500 kPa): 1060.15 ± 0.47 kg/m3
mass density (288.15 K, 5000 kPa): 1061.47 ± 0.49 kg/m3
mass density (288.15 K, 7500 kPa): 1062.8 ± 0.52 kg/m3
mass density (288.15 K, 10000 kPa): 1064.09 ± 0.55 kg/m3
mass density (288.15 K, 20000 kPa): 1069.11 ± 0.67 kg/m3
mass density (288.15 K, 30000 kPa): 1073.88 ± 0.81 kg/m3
mass density (288.15 K, 40000 kPa): 1078.41 ± 0.96 kg/m3
mass density (288.15 K, 50000 kPa): 1082.72 ± 1.1 kg/m3
mass density (288.15 K, 60000 kPa): 1086.83 ± 1.3 kg/m3
surface tension liquid-gas (290.65 K): 38.27 ± 0.27 mN/m
viscosity (290.65 K, 101.33 kPa): 6.765 ± 0.14 mPa·s
speed of sound (290.65 K, 101.33 kPa): 1511.8 ± 1.2 m/s
mass density (290.65 K, 101.33 kPa, Vibrating tube method): 1056.47 ± 0.29 kg/m3
surface tension liquid-gas (293.15 K): 38.02 ± 0.27 mN/m
mass density (293.15 K, 100 kPa): 1054.34 ± 0.43 kg/m3
viscosity (293.15 K, 101.33 kPa): 6.254 ± 0.13 mPa·s
speed of sound (293.15 K, 101.33 kPa): 1503 ± 1.2 m/s
mass density (293.15 K, 101.33 kPa, Vibrating tube method): 1054.34 ± 0.28 kg/m3
mass density (293.15 K, 2500 kPa): 1055.94 ± 0.46 kg/m3
mass density (293.15 K, 5000 kPa): 1057.3 ± 0.48 kg/m3
mass density (293.15 K, 7500 kPa): 1058.64 ± 0.51 kg/m3
mass density (293.15 K, 10000 kPa): 1060 ± 0.53 kg/m3
mass density (293.15 K, 20000 kPa): 1065.1 ± 0.65 kg/m3
mass density (293.15 K, 30000 kPa): 1069.97 ± 0.79 kg/m3
mass density (293.15 K, 40000 kPa): 1074.62 ± 0.93 kg/m3
mass density (293.15 K, 50000 kPa): 1078.97 ± 1.1 kg/m3
mass density (293.15 K, 60000 kPa): 1083.18 ± 1.3 kg/m3
surface tension liquid-gas (295.65 K): 37.77 ± 0.27 mN/m
viscosity (295.65 K, 101.33 kPa): 5.795 ± 0.12 mPa·s
speed of sound (295.65 K, 101.33 kPa): 1494.2 ± 1.2 m/s
mass density (295.65 K, 101.33 kPa, Vibrating tube method): 1052.2 ± 0.28 kg/m3
surface tension liquid-gas (298.15 K): 37.51 ± 0.27 mN/m
mass density (298.15 K, 100 kPa): 1050.06 ± 0.43 kg/m3
viscosity (298.15 K, 101.33 kPa): 5.381 ± 0.11 mPa·s
speed of sound (298.15 K, 101.33 kPa): 1485.3 ± 1.2 m/s
mass density (298.15 K, 101.33 kPa, Vibrating tube method): 1050.06 ± 0.28 kg/m3
mass density (298.15 K, 2500 kPa): 1051.72 ± 0.45 kg/m3
mass density (298.15 K, 5000 kPa): 1053.11 ± 0.47 kg/m3
mass density (298.15 K, 7500 kPa): 1054.48 ± 0.49 kg/m3
mass density (298.15 K, 10000 kPa): 1055.84 ± 0.52 kg/m3
mass density (298.15 K, 20000 kPa): 1061.08 ± 0.63 kg/m3
mass density (298.15 K, 30000 kPa): 1066.04 ± 0.76 kg/m3
mass density (298.15 K, 40000 kPa): 1070.75 ± 0.9 kg/m3
mass density (298.15 K, 50000 kPa): 1075.22 ± 1.1 kg/m3
mass density (298.15 K, 60000 kPa): 1079.49 ± 1.2 kg/m3
surface tension liquid-gas (300.65 K): 37.26 ± 0.27 mN/m
viscosity (300.65 K, 101.33 kPa): 5.006 ± 0.11 mPa·s
speed of sound (300.65 K, 101.33 kPa): 1476.5 ± 1.2 m/s
mass density (300.65 K, 101.33 kPa, Vibrating tube method): 1047.92 ± 0.28 kg/m3
surface tension liquid-gas (303.15 K): 37.01 ± 0.27 mN/m
mass density (303.15 K, 100 kPa): 1045.78 ± 0.42 kg/m3
viscosity (303.15 K, 101.33 kPa): 4.667 ± 0.099 mPa·s
speed of sound (303.15 K, 101.33 kPa): 1467.8 ± 1.2 m/s
mass density (303.15 K, 101.33 kPa, Vibrating tube method): 1045.78 ± 0.28 kg/m3
mass density (303.15 K, 2500 kPa): 1047.47 ± 0.44 kg/m3
mass density (303.15 K, 5000 kPa): 1048.9 ± 0.46 kg/m3
mass density (303.15 K, 7500 kPa): 1050.31 ± 0.48 kg/m3
mass density (303.15 K, 10000 kPa): 1051.69 ± 0.51 kg/m3
mass density (303.15 K, 20000 kPa): 1057.06 ± 0.61 kg/m3
mass density (303.15 K, 30000 kPa): 1062.11 ± 0.73 kg/m3
mass density (303.15 K, 40000 kPa): 1066.94 ± 0.87 kg/m3
mass density (303.15 K, 50000 kPa): 1071.49 ± 1 kg/m3
mass density (303.15 K, 60000 kPa): 1075.79 ± 1.2 kg/m3
vapor or sublimation pressure (303.15 K): 0.09 ± 0.1 kPa
surface tension liquid-gas (305.65 K): 36.75 ± 0.26 mN/m
viscosity (305.65 K, 101.33 kPa): 4.359 ± 0.092 mPa·s
speed of sound (305.65 K, 101.33 kPa): 1459 ± 1.2 m/s
mass density (305.65 K, 101.33 kPa, Vibrating tube method): 1043.63 ± 0.28 kg/m3
surface tension liquid-gas (308.15 K): 36.5 ± 0.26 mN/m
mass density (308.15 K, 100 kPa): 1041.48 ± 0.41 kg/m3
viscosity (308.15 K, 101.33 kPa): 4.078 ± 0.087 mPa·s
speed of sound (308.15 K, 101.33 kPa): 1450.3 ± 1.2 m/s
mass density (308.15 K, 101.33 kPa, Vibrating tube method): 1041.48 ± 0.28 kg/m3
mass density (308.15 K, 2500 kPa): 1043.19 ± 0.43 kg/m3
mass density (308.15 K, 5000 kPa): 1044.66 ± 0.45 kg/m3
mass density (308.15 K, 7500 kPa): 1046.09 ± 0.47 kg/m3
mass density (308.15 K, 10000 kPa): 1047.48 ± 0.49 kg/m3
mass density (308.15 K, 20000 kPa): 1052.96 ± 0.59 kg/m3
mass density (308.15 K, 30000 kPa): 1058.12 ± 0.71 kg/m3
mass density (308.15 K, 40000 kPa): 1063.05 ± 0.84 kg/m3
mass density (308.15 K, 50000 kPa): 1067.61 ± 0.98 kg/m3
mass density (308.15 K, 60000 kPa): 1072.09 ± 1.1 kg/m3
vapor or sublimation pressure (308.15 K): 0.15 ± 0.1 kPa
surface tension liquid-gas (310.65 K): 36.25 ± 0.26 mN/m
viscosity (310.65 K, 101.33 kPa): 3.822 ± 0.081 mPa·s
speed of sound (310.65 K, 101.33 kPa): 1441.6 ± 1.2 m/s
mass density (310.65 K, 101.33 kPa, Vibrating tube method): 1039.33 ± 0.27 kg/m3
surface tension liquid-gas (313.15 K): 35.99 ± 0.26 mN/m
mass density (313.15 K, 100 kPa): 1037.17 ± 0.4 kg/m3
viscosity (313.15 K, 101.33 kPa): 3.588 ± 0.076 mPa·s
speed of sound (313.15 K, 101.33 kPa): 1432.8 ± 1.2 m/s
mass density (313.15 K, 101.33 kPa, Vibrating tube method): 1037.17 ± 0.27 kg/m3
mass density (313.15 K, 2500 kPa): 1038.92 ± 0.42 kg/m3
mass density (313.15 K, 5000 kPa): 1040.41 ± 0.44 kg/m3

— the NIST ThermoML archive (doi:10.1021/je400783h)
